Values after ≈ are worked out from the molar mass of the structure shown.

T1 sequence (Q99720 whole entry): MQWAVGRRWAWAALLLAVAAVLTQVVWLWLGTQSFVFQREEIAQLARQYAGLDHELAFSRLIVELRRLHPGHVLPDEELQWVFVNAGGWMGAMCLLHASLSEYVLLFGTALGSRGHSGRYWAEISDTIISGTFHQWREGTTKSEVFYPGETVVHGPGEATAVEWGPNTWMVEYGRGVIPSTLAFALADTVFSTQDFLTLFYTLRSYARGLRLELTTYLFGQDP

One data set concerns the target T1, human sigma 1 receptor (Homo sapiens, UniProt Q99720).
T1 construct: expressed in transfected cells; host or cells: HEK-293
Briefly: Human sigma 1 receptor radioligand assay ([3H](+)-pentazocine, transfected HEK-293 membranes). Type of data set: binding. The following applies: 5 nM [3H](+)-pentazocine, transfected HEK-293 membranes, 37° C., 120 minutes; read-out: Ki. The method, then: Human Sigma 1 Receptor Radioligand Assay
The assay was carried out with 7 μg of membrane suspension, 5 nM of [^3H](+)-pentazocine in either absence or presence of either buffer or 10 μM Haloperidol for total and non-specific binding, respectively. Binding buffer contained Tris-HCl 50 mM at pH 8. Plates were incubated at 37° C. for 120 minutes. After the incubation period, the reaction mix was then transferred to MultiScreen HTS, FC plates (Millipore), filtered and plates were washed 3 times with ice-cold 10 mM Tris-HCL (pH7.4). Filters were dried and counted at approximately 40% efficiency in a MicroBeta scintillation counter (Perkin-Elmer) using EcoScint liquid scintillation cocktail.
With `Cl.Fc1ccccc1-c1nnn2c1CO[C@@H]1CN(Cc3ccncc3)C[C@H]12` (racemic) [Example 2, (5aRS,8aRS)-3-(2-fluorophenyl)-7-(pyridin-4-ylmethyl)-4,5a,6,7,8,8a-hexahydropyrrolo[3,4-b][1,2,3]triazolo[1,5-d][1,4]oxazine hydrochloride], the Ki amounted to 315 nM.

Take `Cl.Fc1ccc(-c2nnn3c2CO[C@@H]2CN(Cc4ccoc4)C[C@H]23)cc1` (racemic) [Example 21, (5aRS,8aRS)-3-(4-fluorophenyl)-7-(furan-3-ylmethyl)-4,5a,6,7,8,8a-hexahydropyrrolo[3,4-b][1,2,3]triazolo[1,5-d][1,4]oxazine hydrochloride]: the Ki was determined as 16.6 nM. Still for that read-out and setting: to `Cl.Fc1ccc(CN2C[C@@H]3[C@@H](C2)OCc2c(-c4ccncc4)nnn23)cc1` (racemic) [Example 26, (5aRS,8aRS)-7-(4-fluorobenzyl)-3-(pyridin-4-yl)-4,5a,6,7,8,8a-hexahydropyrrolo[3,4-b][1,2,3]triazolo[1,5-d][1,4]oxazine hydrochloride] belongs 133 nM; to `Cl.Fc1ccc(-c2nnn3c2CO[C@H]2CN(C4CCOCC4)C[C@@H]23)cc1` [Example 4, (5aS,8aS)-3-(4-fluorophenyl)-7-(tetrahydro-2H-pyran-4-yl)-4,5a,6,7,8,8a-hexahydropyrrolo[3,4-b][1,2,3]triazolo[1,5-d][1,4]oxazine hydrochloride], 23 nM; to `COc1ccc(-c2nnn3c2CO[C@H]2CN(C4CCOCC4)C[C@@H]23)cn1.Cl` [Example 8, (5aS,8aS)-3-(6-methoxypyridin-3-yl)-7-(tetrahydro-2H-pyran-4-yl)-4,5a,6,7,8,8a-hexahydropyrrolo[3,4-b][1,2,3]triazolo[1,5-d][1,4]oxazine hydrochloride], 227 nM.

Tested on in the next data set: not listed separately
Briefly: Kinetic solubility. The data set is classed as physicochemical. The following applies: aqueous buffer, kinetic from dmso stock; buffered aqueous solution at pH=7.4, 10 μL of 10 mM DMSO solution in 1 mL, stirred 4 hours, supernatant by liquid chromatography; read-out: Kin. Solub. As to the method: To a buffered aqueous solution at pH=7.4 (1 mL), a 10 mM DMSO solution of the test compound (10 μL) was added and the mixture stirred for 4 hours. After centrifugation, the compound concentration in the supernatant was determined by liquid chromatography by fitting in a calibration curve of the compound.
As to `Cl.Fc1ccccc1-c1nnn2c1CO[C@@H]1CN(Cc3ccncc3)C[C@H]12` (racemic) [Example 2, (5aRS,8aRS)-3-(2-fluorophenyl)-7-(pyridin-4-ylmethyl)-4,5a,6,7,8,8a-hexahydropyrrolo[3,4-b][1,2,3]triazolo[1,5-d][1,4]oxazine hydrochloride], the solubility at 4 h is over 10 µM. Turning to `Cl.Fc1ccccc1-c1nnn2c1CO[C@@H]1CN(Cc3ccccn3)C[C@H]12` (racemic) [Example 3, (5aRS,8aRS)-3-(2-fluorophenyl)-7-(pyridin-2-ylmethyl)-4,5a,6,7,8,8a-hexahydropyrrolo[3,4-b][1,2,3]triazolo[1,5-d][1,4]oxazine hydrochloride], the solubility at 4 h was over 10 µM. Still for that read-out and setting: then `Cl.Fc1ccc(-c2nnn3c2CO[C@@H]2CN(Cc4ccoc4)C[C@H]23)cc1` (racemic) [Example 21, (5aRS,8aRS)-3-(4-fluorophenyl)-7-(furan-3-ylmethyl)-4,5a,6,7,8,8a-hexahydropyrrolo[3,4-b][1,2,3]triazolo[1,5-d][1,4]oxazine hydrochloride], with over 10 µM.

As to `Cl.Fc1ccc(CN2C[C@@H]3[C@@H](C2)OCc2c(-c4ccncc4)nnn23)cc1` (racemic) [Example 26, (5aRS,8aRS)-7-(4-fluorobenzyl)-3-(pyridin-4-yl)-4,5a,6,7,8,8a-hexahydropyrrolo[3,4-b][1,2,3]triazolo[1,5-d][1,4]oxazine hydrochloride], the solubility at 4 h is over 10 µM. For `Cl.Fc1ccccc1-c1nnn2c1CO[C@@H]1CN(Cc3cccnc3)C[C@H]12` [Example 1, (5aR,8aR)-3-(2-fluorophenyl)-7-(pyridin-3-ylmethyl)-4,5a,6,7,8,8a-hexahydropyrrolo[3,4-b][1,2,3]triazolo[1,5-d][1,4]oxazine hydrochloride], the solubility at 4 h was over 20 µM. For `Cl.Fc1ccc(-c2nnn3c2CO[C@H]2CN(C4CCOCC4)C[C@@H]23)cc1` [Example 4, (5aS,8aS)-3-(4-fluorophenyl)-7-(tetrahydro-2H-pyran-4-yl)-4,5a,6,7,8,8a-hexahydropyrrolo[3,4-b][1,2,3]triazolo[1,5-d][1,4]oxazine hydrochloride], the solubility at 4 h is over 10 µM.

Turning to `Cl.Fc1ccccc1-c1nnn2c1CO[C@@H]1CN(C3CCOCC3)C[C@H]12` [Example 7, (5aR,8aR)-3-(2-fluorophenyl)-7-(tetrahydro-2H-pyran-4-yl)-4,5a,6,7,8,8a-hexahydropyrrolo[3,4-b][1,2,3]triazolo[1,5-d][1,4]oxazine hydrochloride], the solubility at 4 h is over 10 µM.

With `COc1ccc(-c2nnn3c2CO[C@H]2CN(C4CCOCC4)C[C@@H]23)cn1.Cl` [Example 8, (5aS,8aS)-3-(6-methoxypyridin-3-yl)-7-(tetrahydro-2H-pyran-4-yl)-4,5a,6,7,8,8a-hexahydropyrrolo[3,4-b][1,2,3]triazolo[1,5-d][1,4]oxazine hydrochloride], the solubility at 4 h is over 10 µM.

On to `Cl.Fc1ccc(CN2C[C@@H]3OCc4c(-c5ccccn5)nnn4[C@H]3C2)cc1` [Example 25, (5aS,8aS)-7-(4-fluorobenzyl)-3-(pyridin-2-yl)-4,5a,6,7,8,8a-hexahydropyrrolo[3,4-b][1,2,3]triazolo[1,5-d][1,4]oxazine hydrochloride], for which the solubility at 4 h is over 10 µM. For `Cl.Clc1ccc(-c2nnn3c2CO[C@@H]2CN(CC4CCOCC4)C[C@H]23)c(Cl)c1` [Example 44, (5aR,8aR)-3-(2,4-dichlorophenyl)-7-((tetrahydro-2H-pyran-4-yl)methyl)-4,5a,6,7,8,8a-hexahydropyrrolo[3,4-b][1,2,3]triazolo[1,5-d][1,4]oxazine hydrochloride], the solubility at 4 h was over 10 µM. Same read-out and setting: to `Cl.Fc1ccc(CN2C[C@@H]3[C@@H](C2)OCc2c(C4CCOCC4)nnn23)cc1` [Example 64, (5aR,8aR)-7-(4-fluorobenzyl)-3-(tetrahydro-2H-pyran-4-yl)-4,5a,6,7,8,8a-hexahydropyrrolo[3,4-b][1,2,3]triazolo[1,5-d][1,4]oxazine hydrochloride] belongs over 10 µM.

The data set is the same for the next values; noted with them: buffered aqueous solution at pH=7.4, 10 μL of 10 mM DMSO solution in 1 mL, stirred 4 hours, supernatant by liquid chromatography; read-out: Kin. Solub.
For the compound `Fc1ccc(CN2C[C@@H]3[C@@H](C2)OCc2c(-c4cccc(F)c4)nnn23)cc1` [drawing 121, reference compound], the solubility at 4 h is 3.9 µM (≈ 1.44 µg/mL).

Still in this data set, the particulars now being: buffered aqueous solution, pH 7.4, aqueous buffer, kinetic from dmso stock, buffered aqueous solution at pH=7.4, 10 μL of 10 mM DMSO solution in 1 mL, stirred 4 hours, supernatant by liquid chromatography; read-out: Kin. Solub.
As for `Cl.Fc1ccc(-c2nnn3c2CO[C@@H]2CN(C4CCOCC4)C[C@H]23)cc1` [Example 5, (5aR,8aR)-3-(4-fluorophenyl)-7-(tetrahydro-2H-pyran-4-yl)-4,5a,6,7,8,8a-hexahydropyrrolo[3,4-b][1,2,3]triazolo[1,5-d][1,4]oxazine hydrochloride], the solubility at 4 h is over 10 µM. The same measure, in the same setting: to `Cl.Fc1ccccc1-c1nnn2c1CO[C@H]1CN(C3CCOCC3)C[C@@H]12` [Example 6, (5aS,8aS)-3-(2-fluorophenyl)-7-(tetrahydro-2H-pyran-4-yl)-4,5a,6,7,8,8a-hexahydropyrrolo[3,4-b][1,2,3]triazolo[1,5-d][1,4]oxazine hydrochloride] belongs over 10 µM. Still for that read-out and setting: then `CCOc1ccc(CN2C[C@@H]3OCc4c(-c5ccccc5F)nnn4[C@H]3C2)cn1.Cl` [Example 20, (5aS,8aS)-7-((6-ethoxypyridin-3-yl)methyl)-3-(2-fluorophenyl)-4,5a,6,7,8,8a-hexahydropyrrolo[3,4-b][1,2,3]triazolo[1,5-d][1,4]oxazine hydrochloride], with over 10 µM.

Take `Cl.Fc1ccc(CN2C[C@@H]3[C@@H](C2)OCc2c(-c4ccccn4)nnn23)cc1` [Example 24, (5aR,8aR)-7-(4-fluorobenzyl)-3-(pyridin-2-yl)-4,5a,6,7,8,8a-hexahydropyrrolo[3,4-b][1,2,3]triazolo[1,5-d][1,4]oxazine hydrochloride]: the solubility at 4 h is over 10 µM. The same measure, in the same setting: to `Cl.Fc1ccc(-c2nnn3c2CO[C@@H]2CN(C4CCOCC4)C[C@H]23)c(F)c1` [Example 28, (5aR,8aR)-3-(2,4-difluorophenyl)-7-(tetrahydro-2H-pyran-4-yl)-4,5a,6,7,8,8a-hexahydropyrrolo[3,4-b][1,2,3]triazolo[1,5-d][1,4]oxazine hydrochloride] belongs over 10 µM; to `Cl.Fc1ccc(-c2nnn3c2CO[C@@H]2CN(CCC4CCOCC4)C[C@H]23)c(F)c1` [Example 40, (5aR,8aR)-3-(2,4-difluorophenyl)-7-(2-(tetrahydro-2H-pyran-4-yl)ethyl)-4,5a,6,7,8,8a-hexahydropyrrolo[3,4-b][1,2,3]triazolo[1,5-d][1,4]oxazine hydrochloride], over 10 µM; to `Cl.Fc1ccc(-c2nnn3c2CO[C@H]2CN(CCC4CCOCC4)C[C@@H]23)c(F)c1` [Example 41, (5aS,8aS)-3-(2,4-difluorophenyl)-7-(2-(tetrahydro-2H-pyran-4-yl)ethyl)-4,5a,6,7,8,8a-hexahydropyrrolo[3,4-b][1,2,3]triazolo[1,5-d][1,4]oxazine hydrochloride], over 10 µM.

As to `Cl.Clc1ccc(-c2nnn3c2CO[C@H]2CN(CC4CCOCC4)C[C@@H]23)c(Cl)c1` [Example 45, (5aS,8aS)-3-(2,4-dichlorophenyl)-7-((tetrahydro-2H-pyran-4-yl)methyl)-4,5a,6,7,8,8a-hexahydropyrrolo[3,4-b][1,2,3]triazolo[1,5-d][1,4]oxazine hydrochloride], the solubility at 4 h was over 10 µM. Still for that read-out and setting: then `Cl.Fc1ccc(CN2C[C@@H]3OCc4c(C5CCOCC5)nnn4[C@H]3C2)cc1` [Example 65, (5aS,8aS)-7-(4-fluorobenzyl)-3-(tetrahydro-2H-pyran-4-yl)-4,5a,6,7,8,8a-hexahydropyrrolo[3,4-b][1,2,3]triazolo[1,5-d][1,4]oxazine hydrochloride], with over 10 µM. In the case of `Fc1ccc(CN2C[C@@H]3[C@@H](C2)OCc2c(-c4cccc(F)c4)nnn23)cc1` [drawing 113, reference compound], the solubility at 4 h came to 3.4 µM (≈ 1.25 µg/mL). For `Fc1ccc(-c2nnn3c2CO[C@@H]2CN(Cc4ccccc4)C[C@H]23)cc1` [reference compound], the solubility at 4 h was 1.82 µM (≈ 0.638 µg/mL). Still for that read-out and setting: then `Fc1ccc(CN2C[C@@H]3[C@@H](C2)OCc2c(-c4ccc(F)cc4F)nnn23)cc1` [reference compound], with 2.13 µM (≈ 0.823 µg/mL); and `Clc1ccc(-c2nnn3c2COC2CN(Cc4ccccc4)C[C@H]23)cc1` (some centres unmarked) [reference compound], with 0.93 µM (≈ 0.341 µg/mL); and `Clc1ccc(-c2nnn3c2CO[C@@H]2CN(Cc4ccccc4)C[C@H]23)c(Cl)c1` [reference compound], with 7.8 µM (≈ 3.13 µg/mL).

Take `FC(F)(F)c1ccc(-c2nnn3c2COC2CN(Cc4ccccc4)C[C@H]23)cc1` (some centres unmarked) [reference compound]: the solubility at 4 h is under 0.4 µM. Still for that read-out and setting: to `COc1ccc(-c2nnn3c2CO[C@H]2CN(Cc4ccccc4)C[C@@H]23)cc1` [reference compound] belongs 2.1 µM (≈ 0.761 µg/mL); to `Fc1ccc(CN2C[C@@H]3OCc4c(-c5ccccc5F)nnn4[C@H]3C2)cc1` [reference compound], 3.08 µM (≈ 1.13 µg/mL); to `Clc1cc(Cl)nc(N2CC3OCc4c(-c5ccccc5)nnn4[C@@H]3C2)n1` (some centres unmarked) [reference compound], under 1 µM.

A word on the Ki: it is the equilibrium dissociation constant of an inhibitor or competing ligand from its target.

Source of the values: patent US9512142B2, “Tricyclic triazolic compounds” (LABORATORIOS DEL DR. ESTEVE S.A., priority 2013, dated 2016).
